Test results from patent EP0200818A1, “Derivatives of the pluramycin group having anti-tumor activity, process for their preparation and their use as medicaments” (MICROBIAL CHEMISTRY RESEARCH FOUNDATION, priority 1984, dated 1986).

What was measured:
L 1210 leukemia cells = experiment: Anti-tumor activity: life prolongation of mice transplanted intraperitoneally with L 1210 leukemia cells; format: in vivo, CDF1 mice; conditions: observed for 30 days, survival of physiological saline control mice = 100
Procedure: A suspension of 1 x 10^5 L 1210 leukemia cells was transplated intraperitoneally in each of the CDF1 mice tested. Thereafter, 5',6'-dehydrokidamycin was injected intraperitoneally for 10 days in predetermined amounts, 10, 5, 2.5, 1.25, 0.625 and 0.3125 mg/kg.

[1] = Acute toxicity (LD50), single intraperitoneal injection; format: in vivo; conditions: single intraperitoneal injection in mice
Procedure: The LD50 of 5',6'-dehydrokidamycin for a single intraperitoneal injection in mice was 100 mg/kg.

[2] = test system: cultured leukemia cell L 1210; experiment: Cytotoxicity: growth inhibition of cultured leukemia cells; format: cell-based; conditions: growth of cultured leukemia cell L 1210
Procedure: The growth of cultured leukemia cell L 1210 was inhibited by 0.07 µg/ml (IC50) of 5',6'~dehydrokidamycin.

5',6'-dehydrokidamycin
Percent life prolongation (L 1210 leukemia cells; 0.3125 mg/kg/day intraperitoneally for 10 days): 147% | Percent life prolongation (L 1210 leukemia cells; 0.625 mg/kg/day intraperitoneally for 10 days): 133% | Percent life prolongation (L 1210 leukemia cells; 1.25 mg/kg/day intraperitoneally for 10 days): 133% | Percent life prolongation (L 1210 leukemia cells; 2.5 mg/kg/day intraperitoneally for 10 days): 133% | Percent life prolongation (L 1210 leukemia cells; 5 mg/kg/day intraperitoneally for 10 days): 173% | Percent life prolongation (L 1210 leukemia cells; 10 mg/kg/day intraperitoneally for 10 days): 153% | LD50 [1]: 100 mg/kg | IC50 [2]: 0.07 µg/mL
